Laboratory results taken from article PMC3299299, “Recombinant Expression and Characterization of Human and Murine ACE2: Species-Specific Activation of the Alternative Renin-Angiotensin-System” (International Journal of Hypertension, 2012).

Legend:
Format in all cases: biochemical
Ang 1–8 = experiment: In vitro kinetic assay, Ang 1–8 cleavage to Ang 1–7, HPLC quantification; conditions: ratio of k cat of the same enzyme for the two substrates
Procedure: (§1) Enzyme reactions were started by adding a defined amount of enzyme to substrate dilutions in MES-buffer (50 mM MES, 300 mM NaCl, 10 μM ZnCl2, 0.01% Brij-35, pH 6.5) which were previously equilibrated at 37°C. Aliquots of the reaction mixes were taken every 10 minutes and stopped by addition of 0.5 M EDTA to a final concentration of 100 mM before HPLC-based quantification of peptides.
(§2) The concentration of peptides in enzymatic reactions was quantified by detection of peaks eluted from the HPLC column using an in-line diode array detector. Chromatography was performed by running a gradient on a reversed-phase matrix (Source 5RPC, 4.6×150 mm, 5 μm) with 0.08% H3PO4 in water as mobile phase A and 40% acetonitrile in water and 0.08% H3PO4 as mobile phase B. The optical density at 280 nm was recorded inline for all eluting peaks, and peptide concentrations were calculated via calibration curves for each individual peptide.
The turnover rates for natural ACE2 substrates were determined by in vitro incubation with excess amounts of substrate followed by reversed-phase HPLC analysis. […] The resulting time courses are shown in the graphs. […] Each time point was analyzed in true triplicates and standard deviations are given in the graphs together with linear regressions of the measured values.

Ang 1–10 = experiment: In vitro kinetic assay, Ang 1–10 cleavage to Ang 1–9, HPLC quantification; conditions: […] enzyme, 65 μM Ang 1–10, MES buffer pH 6.5, 37°C, HPLC; mean of substrate degradation and product formation rates related to enzyme concentration; triplicates
Procedure: as §1, §2
The turnover rates for natural ACE2 substrates were determined by in vitro incubation with excess amounts of substrate followed by reversed-phase HPLC analysis. […] Each time point was analyzed in true triplicates and standard deviations are given in the graphs together with linear regressions of the measured values.

[1] = system: human RAS in blood plasma; experiment: Ex vivo incubation of renin-spiked human plasma, RAS-Fingerprinting by LC-MS/MS; conditions: human plasma + 100 pg/mL recombinant human renin, 10 μM Lisinopril present, without or with 5 μg/mL enzyme, 10 min 37°C (Fig 3b)
Procedure: Anticoagulated blood was collected from healthy volunteers, and plasma was separated by 10 minutes centrifugation at 3000 RCF. […] After 10 minutes of incubation at 37°C, in the presence or absence of Lisinopril (Sigma), samples were chilled on ice and immediately subjected to LC-MS/MS analysis.
Plasma samples were spiked with 100 pg/mL stable-isotope-labeled internal standards and subjected to solid-phase extraction using Sep-Pak cartridges (Waters) according to manufacturers protocol. Following elution and solvent evaporation, samples were reconstituted in 50 μL 50% acetonitrile/0.1% formic acid and subjected to LC-MS/MS analysis using a reversed-phase analytical column (Luna C18, Phenomenex) using a gradient ranging from 10% acetonitrile/0.1% formic acid to 70% acetonitrile/0.1% formic acid in 9 minutes. The eluate was analyzed in line with a QTRAP-4000 mass spectrometer (AB Sciex) operated in the MRM mode using dwell times of 25 msec at a cone voltage of 4000 volts and a source temperature of 300°C. For each peptide and corresponding internal standards, two different mass transitions were measured. Angiotensin peptide concentrations were calculated by relating endogenous peptide signals to internal standard signals provided that integrated signals achieved a signal-to-noise ratio above 10.
RAS-Fingerprints were measured by LC-MS/MS as indicated in Section 2. Samples were incubated in the absence (a) or presence (b) of 10 μM of the ACE inhibitor Lisinopril. In this figure, the diameter of the spheres reflects the concentration of the respective peptide metabolite, which is also given in pg/mL next to each individual sphere. 0 pg/mL indicates concentrations below quantification limits, which are defined by a signal-to-noise ratio below 10. Furthermore, the amino acid sequence of each angiotensin metabolite is schematically given in brackets beside the corresponding sphere. The sequence annotation is based on the decapeptide Angiotensin I (1–10) which is N- or C-terminally cleaved by the indicated proteases. […]

RAS in whole blood = experiment: Ex vivo incubation of whole blood, RAS-Fingerprinting; conditions: whole blood instead of plasma, control and rhACE2 samples (Supplementary Figure 1)
Description: These findings were in contrast to previously published reports on Ang 1–7 accumulating effects of ACE inhibitors in vivo [20, 21]. In our experimental setting, we employed heparinized blood plasma as a sample matrix for ACE2 characterization which is reflecting in vivo conditions very well. However, plasma lacks all blood cells which might carry receptors and angiotensin peptide converting enzymes being able to affect angiotensin peptide concentrations in vivo. […] As neutral endopeptidase (NEP, CD10) is known to be expressed on the cell surface of leukocytes and that it is able to convert Ang 1–10 and Ang 1–9 to Ang 1–7 in vitro [18], NEP is very likely to be responsible for Ang 1–7 accumulation also in vivo, especially in the presence of ACE inhibitors which block the formation of Ang 1–8 which is an important precursor for Ang 1–7.

Molecule	turnover number for Ang 1–8 compared to Ang 1–10 (Ang 1–8) [fold]	k cat, Ang 1–10 ≥ Ang 1–9 (Ang 1–10) [s⁻¹]	Ang (1–10) concentration in plasma ([1]; 0 = below quantification limit) [pg/mL]	Ang (1–7) concentration in plasma ([1]; 0 = below quantification limit (2 pg/mL plasma)) [pg/mL]	Ang 1–7 concentration in whole blood in response to Lisinopril (RAS in whole blood)
rhACE2: extracellular domain of human ACE2 recombinantly expressed in CHO cells	42	0.018			
NCCCC[C@H](N[C@@H](CCc1ccccc1)C(=O)O)C(=O)N1CCC[C@H]1C(=O)O [Lisinopril]			710	< 2	increase of Ang 1–7 concentrations
